# Patent publication US20240228448A1 (Washington University, priority 2021, published 2024)
# Where “and” joins values, the source holds several entries; their conditions need not be identical. Identical values can stand only once. Like-named read-outs stand apart in the source and are kept apart here.
# Columns and labels:
# S1P1 = S1P1 (Homo sapiens, UniProt P21453); test: competitive S1Ps cell membrane binding assay against [32P]S1P, S1P1
# Description: (§1) One way to measure affinity is use of a general competition binding assay.
# S1P4 = molecular target: T1, S1P4 (Homo sapiens, UniProt O95977); test: competitive S1Ps cell membrane binding assay against [32P]S1P, S1P4
# T1 sequence (O95977 1-384): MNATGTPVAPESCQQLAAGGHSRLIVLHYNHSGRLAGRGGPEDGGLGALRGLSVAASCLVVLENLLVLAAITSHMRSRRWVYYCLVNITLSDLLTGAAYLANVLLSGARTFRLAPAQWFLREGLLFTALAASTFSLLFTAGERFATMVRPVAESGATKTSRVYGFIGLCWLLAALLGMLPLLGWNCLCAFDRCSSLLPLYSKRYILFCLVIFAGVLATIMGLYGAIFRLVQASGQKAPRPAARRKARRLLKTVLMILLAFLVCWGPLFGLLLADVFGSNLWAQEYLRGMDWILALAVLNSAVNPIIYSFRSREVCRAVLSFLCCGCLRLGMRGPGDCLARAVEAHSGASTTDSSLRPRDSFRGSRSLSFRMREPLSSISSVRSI
# S1P2-5 = test: competitive S1Ps cell membrane binding assay against [32P]S1P, S1P2-5 reported together
# Description: as §1
# [1] = MicroPET brain study in cynomolgus macaque; conditions: for brain uptake in nonhuman primates: MicroPET, in words
# Experimental: Using a Focus 220 microPET scanner to collect dynamic scans for 2 hours after intravenous injection of ˜0.35 GBq dose into male macaques. Radiometabolites were measured from arterial blood samples collected at 5, 15, 30, and 60 min post-injection of radiotracer. The HPLC eluent was collected, and fractions were counted in a gamma counter.
# Male macaques (˜10 kg) were used for PET imaging data acquisition with a microPET Focus 220 scanner (Siemens Inc., Knoxville, TN). Animals were anesthetized using ketamine and glycopyrrolate and maintained with inhalation of isoflurane. Core temperature was kept at 37° C. with a heated water blanket. The head was secured in a customized head holder. […] Emission data were corrected for dead time, scatter, and attenuation and then reconstructed. […] Predefined brain regions of interest from the template were applied to the co-registered PET image to obtain regional time-activity curves. The measurement of the brain uptake of radiotracer was standardized to body weight and the dose of radioactivity injected to yield a standardized uptake value (SUV).
# The brain uptakes of these tracers were measured by Focus 220 microPET scanner to collect dynamic scans for 2 hours after intravenous injection of ˜0.35 GBq dose into male cynomolgus macaques (8-9 kg).
# S1P5 = S1P5 (Homo sapiens, UniProt Q9H228); test: competitive S1Ps cell membrane binding assay against [32P]S1P, S1P5
# S1P5, sequence (Q9H228 whole entry, species assumed): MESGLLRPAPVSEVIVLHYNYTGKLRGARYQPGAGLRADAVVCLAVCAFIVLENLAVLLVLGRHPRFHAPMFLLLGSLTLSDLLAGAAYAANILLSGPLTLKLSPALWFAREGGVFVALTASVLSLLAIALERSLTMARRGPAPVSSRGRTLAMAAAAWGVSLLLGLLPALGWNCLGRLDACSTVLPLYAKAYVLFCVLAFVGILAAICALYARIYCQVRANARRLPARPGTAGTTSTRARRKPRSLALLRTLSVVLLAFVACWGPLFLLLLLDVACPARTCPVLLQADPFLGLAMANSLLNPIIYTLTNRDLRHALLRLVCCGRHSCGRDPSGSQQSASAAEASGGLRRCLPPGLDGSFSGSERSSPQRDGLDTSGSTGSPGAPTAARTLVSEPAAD
# Description: as §1
# S1P3 = S1P3 (Homo sapiens, UniProt Q99500); test: competitive S1Ps cell membrane binding assay against [32P]S1P, S1P3; conditions: Table 6
# S1P3, sequence (Q99500 whole entry, species assumed): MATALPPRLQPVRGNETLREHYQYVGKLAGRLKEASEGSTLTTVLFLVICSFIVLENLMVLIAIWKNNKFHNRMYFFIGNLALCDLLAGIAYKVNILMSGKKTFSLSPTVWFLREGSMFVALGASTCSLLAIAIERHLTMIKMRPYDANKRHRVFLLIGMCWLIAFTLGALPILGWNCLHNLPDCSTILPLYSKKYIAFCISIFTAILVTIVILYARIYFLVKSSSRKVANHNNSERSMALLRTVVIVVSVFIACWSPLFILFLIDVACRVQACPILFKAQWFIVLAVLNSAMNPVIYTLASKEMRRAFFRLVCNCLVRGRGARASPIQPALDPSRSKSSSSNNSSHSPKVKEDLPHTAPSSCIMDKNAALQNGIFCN
# S1P2 = S1P2 (Homo sapiens, UniProt O95136); test: competitive S1Ps cell membrane binding assay against [32P]S1P, S1P2; conditions: Table 6
# S1P2, sequence (O95136 whole entry, species assumed): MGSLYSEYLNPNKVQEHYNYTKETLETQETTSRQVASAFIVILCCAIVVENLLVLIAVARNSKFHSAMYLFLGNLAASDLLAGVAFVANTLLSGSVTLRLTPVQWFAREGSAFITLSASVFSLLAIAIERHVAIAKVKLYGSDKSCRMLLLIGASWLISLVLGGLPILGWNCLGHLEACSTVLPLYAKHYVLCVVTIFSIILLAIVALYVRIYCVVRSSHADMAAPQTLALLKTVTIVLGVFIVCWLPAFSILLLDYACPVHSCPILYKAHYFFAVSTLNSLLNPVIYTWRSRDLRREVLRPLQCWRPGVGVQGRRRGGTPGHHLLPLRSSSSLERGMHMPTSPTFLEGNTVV
# [2] = Human biodistribution / dosimetry PET study of [11C]CS1P1; format: in vivo
# Experimental: One human (88 kg, SIEMENS, patient ID: 1179101) was imaged with a dose of 7.2 mCi (FIG. 10A). Good uptake was found in the brain (FIG. 10B). Residence time and total absorbed dose in individual organs was also measured (FIG. 10C and Table 4).
# [3] = Table 7, read-out: IC50 (nM) S1P2-5
# [4] = read-out: IC50 (nM) S1P1, Table 5
# [5] = Table 5, read-out: IC50 (nM) S1P5
# [6] = Table 6, read-out: IC50 for S1P4
# S1P1, sequence (P21453 whole entry, species assumed): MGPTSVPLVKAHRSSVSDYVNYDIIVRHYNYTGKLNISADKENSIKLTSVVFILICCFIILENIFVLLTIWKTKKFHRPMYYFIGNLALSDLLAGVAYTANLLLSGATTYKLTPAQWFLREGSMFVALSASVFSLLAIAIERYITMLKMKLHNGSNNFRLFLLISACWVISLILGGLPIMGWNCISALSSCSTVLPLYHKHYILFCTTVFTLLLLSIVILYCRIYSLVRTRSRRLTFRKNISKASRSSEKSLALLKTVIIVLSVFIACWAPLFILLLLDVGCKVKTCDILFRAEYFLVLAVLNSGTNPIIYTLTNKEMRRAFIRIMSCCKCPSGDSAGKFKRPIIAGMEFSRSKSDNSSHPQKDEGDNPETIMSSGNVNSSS
structure (smiles),measurement,setting,value
OCc1nc2cc(-c3noc(-c4ccc(OCCF)c(C(F)(F)F)c4)n3)ccc2[nH]1 [TZ82-37],IC50,"S1P1; IC50 (nM) S1P1, Table 5",28 ± 5.8 nM
Cc1ccccc1-c1ccc(-c2nc(-c3ccc(CN(C)CCC(=O)O)c(F)c3)no2)cc1C(F)(F)F [TZ33-21],IC50,"S1P4; Table 5, read-out: IC50 (nM) S1P4",> 1000 nM
same,IC50,S1P2-5; [3],> 1000 nM
same,IC50,S1P2-5; read-out: IC50 for S1P2-5,> 1000 nM
CN(C(=O)OC(C)(C)C)c1cccc(-c2noc(-c3ccc(OCCF)c(C(F)(F)F)c3)n2)c1 [TZ73-124],IC50,"S1P1; IC50 (nM) S1P1, Table 5",> 1000 nM
Cc1ccccc1-c1ccc(-c2nc(-c3ccc(COCCCO)c(F)c3)no2)cc1C(F)(F)F [TZ82-78],IC50,"S1P1; IC50 (nM) S1P1, Table 5",2.8 nM
Cc1ccccc1-c1ccc(-c2nc(-c3ccc(CN(C)CCCC(=O)O)c([18F])c3)no2)cc1C(F)(F)F [[^18F]TZ8248],brain uptake in nonhuman primates,[1],high brain uptake
same,"brain uptake, standard uptake value (SUV)","[1]; macaque brain, 120 min post-injection",~2.8
Cc1ccccc1-c1ccc(-c2nc(-c3ccc(CN(C)CC(=O)O)c([18F])c3)no2)cc1C(F)(F)F [[^18F]TZ8247],brain uptake in nonhuman primates,[1],high brain uptake
FCCOc1ccc(-c2nc(-c3ccc4cc[nH]c4c3)no2)cc1C(F)(F)F [TZ73-11],IC50,S1P1; [4],34 ± 2.4 nM
FCCOc1ccc(-c2nc(-c3cccc4[nH]ccc34)no2)cc1C(F)(F)F [TZ82-34],IC50,S1P2-5; [3],> 1000 nM
Cc1ccccc1-c1ccc(-c2nc(-c3ccc(CN(C)CCC(=O)O)c(I)c3)no2)cc1C(F)(F)F [TZ73-143],IC50,"S1P1; IC50 (nM) S1P1, Table 5",5.2 ± 2.7 nM
OCCn1ccc2cc(-c3noc(-c4ccc(OCCF)c(C(F)(F)F)c4)n3)ccc21 [TZ73-15],IC50,"S1P1; IC50 (nM) S1P1, Table 5",57 ± 4.6 nM
CN(CCCCO)Cc1ccc(-c2noc(-c3ccc(OCCF)c(C(F)(F)F)c3)n2)cc1F [TZ82-115],IC50,S1P5; [5],721 nM
Cc1ccccc1-c1ccc(-c2nc(-c3ccc(COCCO)c(F)c3)no2)cc1C(F)(F)F [TZ82-3],IC50,S1P2-5; [3],> 1000 nM
Cc1ccccc1-c1ccc(-c2nc(-c3ccc(CO)cc3)no2)cc1C(F)(F)F [TZ82-1],IC50,"S1P1; IC50 (nM) S1P1, Table 5",4.6 nM
same,IC50,S1P5; [5],55.6 nM
CN(CCO)Cc1ccc(-c2noc(-c3ccc(OCCF)c(C(F)(F)F)c3)n2)cc1F [TZ82-114],IC50,"S1P1; IC50 (nM) S1P1, Table 5",14.6 nM
same,IC50,S1P5; [5],120 nM
COc1ccc(-c2nc(-c3ccc(CN(C)CCCO)cc3)no2)cc1C(F)(F)F [TZ82-126],IC50,S1P5; [5],1940 nM
CN(CCC(=O)O)Cc1ccc(-c2noc(-c3ccc(OCCF)c(C(F)(F)F)c3)n2)cc1F [TZ82-24],IC50,S1P3,> 1000 nM
same,IC50,S1P4; [6],> 1000 nM
same,IC50,S1P2,> 1000 nM
Cc1ccccc1-c1ccc(-c2nc(-c3ccc(CO)c(F)c3)no2)cc1C(F)(F)F [TZ73-135],IC50,S1P2-5; [3],> 1000 nM
Cc1ccccc1-c1ccc(-c2nc(-c3ccc(CN(C)CCCO)c(F)c3)no2)cc1C(F)(F)F [TZ82-52],IC50,S1P3,418 nM
same,IC50,S1P4; [6],> 1000 nM
same,IC50,S1P2,> 1000 nM
CN(CCCO)Cc1ccc(-c2noc(-c3ccc(OCCF)c(C(F)(F)F)c3)n2)cc1F [TZ82-112],IC50,S1P3,746 nM
same,IC50,S1P4; [6],> 1000 nM
same,IC50,"S1P1; IC50 (nM) S1P1, Table 5",15.8 nM
same,IC50,"S1P1; IC50 for S1P1 (nM), Table 6, single determinations",15.8 nM and 2.03 nM and 8.17 nM
same,IC50,S1P5; [5],234 nM
same,IC50,"S1P5; Table 6, read-out: IC50 for S1P5",> 1000 nM
same,IC50,S1P2,> 1000 nM
Cc1ccccc1-c1ccc(-c2nc(-c3ccc(CN([11CH3])CCC(=O)O)c(F)c3)no2)cc1C(F)(F)F [[^11C]CS1P1],"brain uptake, maximum SUV value","[1]; macaque brain, from 20 to 120 min post-injection",~2.3
same,total absorbed dose,"[2]; Brain, human",1.02 ± 0.1 μGy/MBq
same,total absorbed dose,"[2]; Gall bladder, human",4.82 ± 0.19 μGy/MBq
same,total absorbed dose,"[2]; Heart wall, human",2.06 ± 0.13 μGy/MBq
same,total absorbed dose,"[2]; Kidneys, human",4.66 ± 0.22 μGy/MBq
same,total absorbed dose,"[2]; Liver, human",9.88 ± 0.03 μGy/MBq
same,total absorbed dose,"[2]; Lung, human",2.13 ± 0.56 μGy/MBq
same,total absorbed dose,"[2]; Pancreas, human",2.22 ± 0.07 μGy/MBq
same,total absorbed dose,"[2]; Spleen, human",3.09 ± 0.35 μGy/MBq
same,total absorbed dose,"[2]; Urinary bladder, human",0.48 ± 0.32 μGy/MBq
same,total human effective dose,[2]; administration of 10 mCi (370 MBq),< 0.6 mSv
same,Effective does (μSv/MBq),[2]; human,1.60 ± 0.15 μSv/MBq
same,safety of imaging for clinical PET studies,"[2]; human, in words",safe
FCCOc1ccc(-c2nc(-c3cccc4cc[nH]c34)no2)cc1C(F)(F)F [TZ82-35],IC50,S1P1; [4],98 ± 26 nM
OCCOCc1ccc(-c2noc(-c3ccc(OCCF)c(C(F)(F)F)c3)n2)cc1F [TZ73-144],IC50,"S1P1; IC50 (nM) S1P1, Table 5",17 ± 7 nM
CC(O)c1ccc(-c2noc(-c3ccc(OCCF)c(C(F)(F)F)c3)n2)cc1 (stereo not shown) [TZ73-28],IC50,"S1P1; IC50 (nM) S1P1, Table 5",21 ± 2.5 nM
CC(C)(C)OC(=O)Nc1cccc(-c2noc(-c3ccc(OCCF)c(C(F)(F)F)c3)n2)c1 [TZ82-40],IC50,"S1P1; IC50 (nM) S1P1, Table 5",> 1000 nM
CNC(=O)CCN(C)Cc1ccc(-c2noc(-c3ccc(-c4ccccc4C)c(C(F)(F)F)c3)n2)cc1F [TZ82-118],IC50,"S1P1; IC50 (nM) S1P1, Table 5",3 nM
OCc1ccc(-c2noc(-c3ccc(OCc4cccc(F)n4)c(C(F)(F)F)c3)n2)cc1 [TZ82-92],IC50,"S1P1; IC50 (nM) S1P1, Table 5",243 nM
same,IC50,S1P5; [5],934 nM
Cc1ccccc1-c1ccc(-c2nc(-c3ccc(CN(C)CCCCO)c(F)c3)no2)cc1C(F)(F)F [TZ82-53],IC50,S1P1; [4],4.9 nM
